Where two headings read alike, the source gives them in different places.
Assays:
HepG2 = experiment: MTT antitumor assay, HepG2; settings: Homo sapiens, HepG2, read-out: IC50 (μM) HepG2
Description: (§2) The evaluation of the antitumour activity was performed using tetrazolium salt MTT (3–(4,5-dimethyl-2-thiazolyl)-2,5-diphenyl-2H-tetrazolium bromide) assay as reported[47–50].

HER2 = target: T1, HER2 (Homo sapiens, UniProt P04626); experiment: Kinase inhibition assay (Kinase-Glo Plus), HER2; assay type: biochemical; settings: read-out: % inhibition of 10 μM HER2; 10 μM compound
T1 construct: purchased BPS Bioscience
Description: (§1) Luminescence signal was measured using a BioTek Synergy 2 microplate reader.

MCF-7 = experiment: MTT antitumor assay, MCF-7
Description: as §2

COX-1 = target: T2, COX-1 (Ovis aries, UniProt P05979); experiment: In vitro COX-1 enzyme inhibition assay (colorimetric kit)
T2 sequence (P05979 25-600): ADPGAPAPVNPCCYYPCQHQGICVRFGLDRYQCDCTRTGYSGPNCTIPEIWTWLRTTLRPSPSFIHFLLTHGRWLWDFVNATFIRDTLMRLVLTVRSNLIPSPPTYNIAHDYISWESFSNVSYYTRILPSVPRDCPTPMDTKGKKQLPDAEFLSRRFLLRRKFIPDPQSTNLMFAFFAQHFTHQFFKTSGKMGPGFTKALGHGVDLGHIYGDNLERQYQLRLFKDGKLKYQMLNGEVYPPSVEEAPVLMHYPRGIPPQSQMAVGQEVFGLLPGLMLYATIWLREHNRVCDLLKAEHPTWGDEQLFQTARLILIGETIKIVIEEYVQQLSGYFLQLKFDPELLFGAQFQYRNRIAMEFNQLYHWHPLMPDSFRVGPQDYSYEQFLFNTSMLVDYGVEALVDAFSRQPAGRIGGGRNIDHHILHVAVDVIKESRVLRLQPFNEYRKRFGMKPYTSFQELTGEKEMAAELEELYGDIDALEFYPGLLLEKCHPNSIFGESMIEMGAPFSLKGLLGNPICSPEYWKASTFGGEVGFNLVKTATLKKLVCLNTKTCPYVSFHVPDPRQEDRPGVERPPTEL
Description: (§3) IC50 (represented in μM) (The half-maximal inhibitor concentration) values were determined[56–59], and the SI values were calculated[51]^,[52]^,[55] as IC50 (COX-1)/IC50 (COX-2).

HER4 = target: T3, HER4 (Homo sapiens, UniProt Q15303); experiment: Kinase inhibition assay (Kinase-Glo Plus), HER4; assay type: biochemical; settings: read-out: % inhibition of 10 μM HER4; 10 μM compound
T3 construct: purchased BPS Bioscience
T3 sequence (Q15303 26-1308): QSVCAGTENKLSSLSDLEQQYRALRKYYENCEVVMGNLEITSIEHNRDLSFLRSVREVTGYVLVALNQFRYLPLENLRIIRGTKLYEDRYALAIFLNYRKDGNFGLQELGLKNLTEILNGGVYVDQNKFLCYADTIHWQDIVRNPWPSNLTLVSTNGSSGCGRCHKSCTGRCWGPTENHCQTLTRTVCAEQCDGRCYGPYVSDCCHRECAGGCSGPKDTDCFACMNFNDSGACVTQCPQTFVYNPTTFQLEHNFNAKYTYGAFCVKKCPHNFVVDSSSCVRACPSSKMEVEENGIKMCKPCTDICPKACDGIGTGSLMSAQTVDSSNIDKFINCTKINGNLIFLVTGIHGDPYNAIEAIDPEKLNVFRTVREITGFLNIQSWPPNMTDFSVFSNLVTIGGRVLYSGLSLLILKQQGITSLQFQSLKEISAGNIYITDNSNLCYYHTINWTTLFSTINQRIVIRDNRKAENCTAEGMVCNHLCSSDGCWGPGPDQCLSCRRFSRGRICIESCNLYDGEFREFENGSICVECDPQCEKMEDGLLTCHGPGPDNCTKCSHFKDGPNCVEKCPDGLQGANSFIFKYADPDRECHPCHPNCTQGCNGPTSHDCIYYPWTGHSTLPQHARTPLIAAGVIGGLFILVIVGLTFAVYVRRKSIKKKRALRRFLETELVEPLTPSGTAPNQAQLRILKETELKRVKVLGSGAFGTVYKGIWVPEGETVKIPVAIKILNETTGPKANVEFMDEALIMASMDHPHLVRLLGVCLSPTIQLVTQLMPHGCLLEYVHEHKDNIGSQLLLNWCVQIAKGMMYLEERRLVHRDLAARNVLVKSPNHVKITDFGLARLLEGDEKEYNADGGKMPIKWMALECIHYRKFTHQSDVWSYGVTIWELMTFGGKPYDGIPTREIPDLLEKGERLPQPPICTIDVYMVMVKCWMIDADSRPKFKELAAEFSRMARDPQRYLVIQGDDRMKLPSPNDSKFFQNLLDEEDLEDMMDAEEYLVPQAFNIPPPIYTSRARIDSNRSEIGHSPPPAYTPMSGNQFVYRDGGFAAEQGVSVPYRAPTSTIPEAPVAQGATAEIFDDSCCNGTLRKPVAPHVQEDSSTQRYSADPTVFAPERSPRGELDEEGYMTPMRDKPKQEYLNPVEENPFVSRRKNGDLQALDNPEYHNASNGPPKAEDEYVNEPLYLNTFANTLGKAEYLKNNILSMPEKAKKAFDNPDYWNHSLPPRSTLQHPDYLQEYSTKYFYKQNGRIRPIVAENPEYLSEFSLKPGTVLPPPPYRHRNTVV
Description: as §1

EGFR = target: T4, EGFR (Homo sapiens, UniProt P00533); experiment: Kinase inhibition assay (Kinase-Glo Plus), EGFR; assay type: biochemical; settings: read-out: % inhibition of 10 μM EGFR; 10 μM compound
T4 construct: purchased BPS Bioscience
T4 sequence (P00533 25-1210): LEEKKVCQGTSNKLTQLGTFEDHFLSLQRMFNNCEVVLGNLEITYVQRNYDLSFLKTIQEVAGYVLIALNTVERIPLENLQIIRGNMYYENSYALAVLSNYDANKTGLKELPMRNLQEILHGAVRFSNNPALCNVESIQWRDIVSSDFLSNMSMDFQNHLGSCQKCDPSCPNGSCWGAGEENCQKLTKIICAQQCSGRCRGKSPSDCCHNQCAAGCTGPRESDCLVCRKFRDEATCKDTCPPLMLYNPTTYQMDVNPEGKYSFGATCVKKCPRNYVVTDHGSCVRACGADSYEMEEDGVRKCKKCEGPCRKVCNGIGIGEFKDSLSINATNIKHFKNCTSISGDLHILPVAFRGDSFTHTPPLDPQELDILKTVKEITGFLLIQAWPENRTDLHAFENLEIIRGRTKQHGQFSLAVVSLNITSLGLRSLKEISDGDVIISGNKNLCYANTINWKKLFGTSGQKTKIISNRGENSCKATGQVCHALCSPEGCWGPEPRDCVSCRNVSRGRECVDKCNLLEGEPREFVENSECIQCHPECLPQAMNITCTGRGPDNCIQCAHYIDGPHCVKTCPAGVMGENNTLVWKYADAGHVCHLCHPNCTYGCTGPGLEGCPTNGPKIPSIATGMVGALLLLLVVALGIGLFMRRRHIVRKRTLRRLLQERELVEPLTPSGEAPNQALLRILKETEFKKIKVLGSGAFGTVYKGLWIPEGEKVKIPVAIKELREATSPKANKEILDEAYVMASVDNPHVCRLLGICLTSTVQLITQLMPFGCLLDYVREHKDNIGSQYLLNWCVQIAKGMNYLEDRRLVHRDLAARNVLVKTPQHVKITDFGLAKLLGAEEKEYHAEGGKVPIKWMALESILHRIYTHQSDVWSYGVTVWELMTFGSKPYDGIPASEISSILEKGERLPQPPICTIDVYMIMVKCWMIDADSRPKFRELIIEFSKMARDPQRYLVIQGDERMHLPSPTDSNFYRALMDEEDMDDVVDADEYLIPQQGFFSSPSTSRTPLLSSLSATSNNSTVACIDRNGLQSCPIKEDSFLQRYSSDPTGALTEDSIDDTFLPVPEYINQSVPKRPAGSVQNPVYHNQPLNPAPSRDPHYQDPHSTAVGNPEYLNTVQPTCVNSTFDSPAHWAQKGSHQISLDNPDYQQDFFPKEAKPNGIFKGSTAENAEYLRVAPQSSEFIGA
Description: as §1

HCT-116 = experiment: MTT antitumor assay, HCT-116
Description: as §2

COX-2 = target: T5, COX-2 (Ovis aries, UniProt P79208); experiment: In vitro COX-2 enzyme inhibition assay (colorimetric kit); settings: for SI, selectivity index (COX-1 IC50/COX-2 IC50): COX-2 selectivity over COX-1
T5 sequence (P79208 17-603): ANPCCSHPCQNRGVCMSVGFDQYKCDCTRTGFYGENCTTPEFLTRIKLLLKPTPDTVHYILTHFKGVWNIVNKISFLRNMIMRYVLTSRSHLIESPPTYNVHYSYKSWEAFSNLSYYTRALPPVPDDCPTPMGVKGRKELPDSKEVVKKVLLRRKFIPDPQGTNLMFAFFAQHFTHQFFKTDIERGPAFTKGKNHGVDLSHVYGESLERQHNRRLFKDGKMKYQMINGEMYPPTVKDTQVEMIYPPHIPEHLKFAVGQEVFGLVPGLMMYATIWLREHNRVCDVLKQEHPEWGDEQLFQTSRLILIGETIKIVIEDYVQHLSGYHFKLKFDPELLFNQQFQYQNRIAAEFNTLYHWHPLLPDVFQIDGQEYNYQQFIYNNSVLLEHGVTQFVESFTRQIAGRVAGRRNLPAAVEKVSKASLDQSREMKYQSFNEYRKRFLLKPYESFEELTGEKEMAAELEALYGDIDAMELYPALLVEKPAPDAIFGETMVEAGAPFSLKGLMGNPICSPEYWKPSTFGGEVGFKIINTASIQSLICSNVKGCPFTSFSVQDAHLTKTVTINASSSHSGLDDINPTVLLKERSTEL
Description: as §3

cSrc = target: T6, cSrc (Homo sapiens, UniProt P12931); experiment: Kinase inhibition assay (Kinase-Glo Plus), cSrc; assay type: biochemical; settings: for inhibition at 10 µM: read-out: % inhibition, 10 μM compound
T6 construct: purchased BPS Bioscience
T6 sequence (P12931 whole entry): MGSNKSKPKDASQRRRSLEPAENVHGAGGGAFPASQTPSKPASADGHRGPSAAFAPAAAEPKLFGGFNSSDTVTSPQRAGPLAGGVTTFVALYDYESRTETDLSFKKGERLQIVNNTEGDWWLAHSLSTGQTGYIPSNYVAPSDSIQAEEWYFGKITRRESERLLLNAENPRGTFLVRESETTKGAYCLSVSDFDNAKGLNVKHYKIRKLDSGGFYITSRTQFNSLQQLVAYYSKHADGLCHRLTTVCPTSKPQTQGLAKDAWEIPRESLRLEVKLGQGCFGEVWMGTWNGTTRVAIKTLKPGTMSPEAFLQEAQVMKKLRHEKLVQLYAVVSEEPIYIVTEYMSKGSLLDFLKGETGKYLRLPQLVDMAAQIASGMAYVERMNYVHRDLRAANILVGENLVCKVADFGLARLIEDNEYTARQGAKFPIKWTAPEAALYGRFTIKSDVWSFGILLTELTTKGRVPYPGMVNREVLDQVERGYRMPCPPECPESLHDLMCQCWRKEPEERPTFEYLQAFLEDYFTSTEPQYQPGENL
Description: as §1

Caco-2 = experiment: MTT antitumor assay, Caco-2; settings: Homo sapiens, Caco-2, read-out: IC50 (μM) Caco-2
Description: as §2

[1] = Homo sapiens, MCF7, read-out: IC50 (μM) MCF-7, human breast adenocarcinoma cell line, MTT, mean ± SD, n = 3
[2] = Homo sapiens, HCT-116, read-out: IC50 (μM) HCT-116, human colon cancer cell line, MTT, mean ± SD, n = 3
[3] = read-out: IC50 (μM) MCF-7, human breast adenocarcinoma cell line, MTT, mean ± SD, n = 3

T1 sequence (P04626 23-1255): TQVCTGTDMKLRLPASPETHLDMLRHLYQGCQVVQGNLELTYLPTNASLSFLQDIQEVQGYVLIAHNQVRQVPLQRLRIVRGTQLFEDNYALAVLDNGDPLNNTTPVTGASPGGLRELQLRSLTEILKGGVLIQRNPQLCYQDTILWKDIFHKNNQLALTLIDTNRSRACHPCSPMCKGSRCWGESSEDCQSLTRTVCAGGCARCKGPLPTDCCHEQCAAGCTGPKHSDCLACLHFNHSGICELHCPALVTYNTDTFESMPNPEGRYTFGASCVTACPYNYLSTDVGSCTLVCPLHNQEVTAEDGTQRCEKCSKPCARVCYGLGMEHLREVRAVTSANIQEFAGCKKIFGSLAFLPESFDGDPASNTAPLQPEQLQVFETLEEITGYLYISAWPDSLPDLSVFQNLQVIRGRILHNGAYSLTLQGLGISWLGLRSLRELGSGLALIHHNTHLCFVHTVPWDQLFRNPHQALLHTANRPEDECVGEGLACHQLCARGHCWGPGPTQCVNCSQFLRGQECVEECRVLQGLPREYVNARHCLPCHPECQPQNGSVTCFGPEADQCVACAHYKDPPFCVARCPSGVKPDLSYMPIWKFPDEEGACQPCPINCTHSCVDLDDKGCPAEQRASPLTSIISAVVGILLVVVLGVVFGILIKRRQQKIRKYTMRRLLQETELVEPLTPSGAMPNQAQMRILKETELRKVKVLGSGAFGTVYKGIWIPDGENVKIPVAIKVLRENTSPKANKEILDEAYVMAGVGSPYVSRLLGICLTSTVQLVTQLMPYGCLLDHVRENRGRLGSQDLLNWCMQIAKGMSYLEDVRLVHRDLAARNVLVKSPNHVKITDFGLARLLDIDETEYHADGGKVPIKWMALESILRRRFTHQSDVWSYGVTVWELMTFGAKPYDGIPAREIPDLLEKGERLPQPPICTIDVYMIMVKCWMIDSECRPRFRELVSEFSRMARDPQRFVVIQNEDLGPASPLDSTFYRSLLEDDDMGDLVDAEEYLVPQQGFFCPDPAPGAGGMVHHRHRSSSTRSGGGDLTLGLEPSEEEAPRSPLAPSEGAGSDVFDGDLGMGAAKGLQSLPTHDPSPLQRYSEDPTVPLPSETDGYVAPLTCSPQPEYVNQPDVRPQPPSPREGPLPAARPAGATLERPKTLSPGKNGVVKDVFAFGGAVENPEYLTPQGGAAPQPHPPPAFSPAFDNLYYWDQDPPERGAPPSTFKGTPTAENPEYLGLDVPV

SMILES	IC50 (HepG2)	inhibition at 10 µM (HER2)	IC50 (MCF-7; [1])	IC50 (COX-1)	melting point	inhibition at 10 µM (HER4)	inhibition at 10 µM (EGFR)	IC50 (HCT-116; [2])	IC50 (COX-2)	SI, selectivity index (COX-1 IC50/COX-2 IC50) (COX-2)	inhibition at 10 µM (cSrc)	IC50 (Caco-2)	IC50 (MCF-7; [3])	IC50 (HCT-116; read-out: IC50 (μM) HCT-116, human colon cancer cell line, MTT, mean ± SD, n = 3)	inhibition at 1 µM (cSrc; read-out: % inhibition cSrc)	IC50 (MCF-7; Homo sapiens, MCF7, read-out: IC50 (μM) MCF-7)	IC50 (HCT-116; Homo sapiens, HCT-116, read-out: IC50 (μM) HCT-116)
CC(C(=O)SC1CCCCC1)c1ccc(-c2ccccc2)c(F)c1 (stereo not drawn) [3b, S-cyclohexyl-2–(2-fluoro-[1,1′-biphenyl]-4-yl)propanethioate]	10.5 ± 0.98 µM	0%	13.7 ± 1.19 µM	> 50 µM	90 to 92 °C	3%	0%	23.8 ± 1.8 µM	690 ± 57 nM	>72.5	3%	26.8 ± 2.17 µM	–	–	–	–	–
CC(C(=O)SC1CCCCC1)c1cccc(C(=O)c2ccccc2)c1 (stereo not drawn) [2b, S-cyclohexyl-2–(3-benzoylphenyl)propanethioate]	9.36 ± 0.79 µM	1%	11.9 ± 1.13 µM	> 50 µM	69 to 70 °C	5%	0%	18.7 ± 1.5 µM	660 ± 52 nM	>75.8	4%	21.7 ± 1.9 µM	–	–	–	–	–
CN(C)C/C=C/C(=O)Nc1cc2c(Nc3ccc(F)c(Cl)c3)ncnc2cc1O[C@H]1CCOC1 [Afatinib, reference compound]	5.4 ± 0.25 µM	–	7.1 ± 0.49 µM	–	–	–	–	6.2 ± 0.67 µM	–	–	–	7.7 ± 0.57 µM	–	–	–	–	–
CC(C)Cc1ccc(C(C)C(=O)SC2CCCCC2)cc1 (stereo not drawn) [1b, S-cyclohexyl-2–(4-isobutylphenyl)propanethioate]	> 100 µM	–	> 100 µM	–	–	–	–	97.6 ± 5.12 µM	–	–	–	> 100 µM	–	–	–	–	–
CC(C)Cc1ccc(C(C)C(=O)Sc2ccccc2)cc1 (stereo not drawn) [1a, S-phenyl-2–(4-isobutylphenyl)propanethioate]	85.1 ± 4.53 µM	–	80.4 ± 4.58 µM	–	–	–	–	89.6 ± 4.68 µM	–	–	–	94.8 ± 4.92 µM	–	–	–	–	–
CN[C@@H]1C[C@H]2O[C@@](C)([C@@H]1OC)n1c3ccccc3c3c4c(c5c6ccccc6n2c5c31)C(=O)NC4 [Staurosporine, reference compound]	–	–	–	–	–	–	–	–	–	–	–	–	–	–	100%	–	–
Cc1ccc(-c2cc(C(F)(F)F)nn2-c2ccc(S(N)(=O)=O)cc2)cc1 [Celecoxib, reference compound]	25.6 ± 2.3 µM	–	–	–	–	–	–	–	–	–	–	42.7 ± 3.1 µM	–	–	–	31.3 ± 2.5 µM	29.5 ± 2.1 µM
O=c1[nH]cc(F)c(=O)[nH]1 [5-FU, 5-Fluorouracil, reference compound]	7.91 ± 0.28 µM	–	5.43 ± 0.2 µM	–	–	–	–	5.32 ± 0.17 µM	–	–	–	6.85 ± 0.34 µM	–	–	–	–	–
CC(C(=O)Sc1ccccc1)c1cccc(C(=O)c2ccccc2)c1 (stereo not drawn) [2a, S-phenyl-2–(3-benzoylphenyl)propanethioate]	59.8 ± 3.55 µM	–	–	–	96 to 98 °C	–	–	–	–	–	–	72.2 ± 4.06 µM	48.1 ± 3.15 µM	61.3 ± 3.97 µM	–	–	–
CC(C(=O)Sc1ccccc1)c1ccc(-c2ccccc2)c(F)c1 (stereo not drawn) [3a, S-phenyl-2–(2-fluoro-[1,1′-biphenyl]-4-yl)propanethioate]	68.8 ± 3.87 µM	–	63.6 ± 3.62 µM	–	85 to 86 °C	–	–	78.1 ± 4.08 µM	–	–	–	76.5 ± 4.38 µM	–	–	–	–	–

Second part, led by results:

IC50 (HepG2)	inhibition at 10 µM (HER2)	IC50 (MCF-7; [1])	IC50 (COX-1)	melting point	inhibition at 10 µM (HER4)	inhibition at 10 µM (EGFR)	IC50 (HCT-116; [2])	IC50 (COX-2)	SI, selectivity index (COX-1 IC50/COX-2 IC50) (COX-2)	inhibition at 10 µM (cSrc)	IC50 (Caco-2)	IC50 (MCF-7; [3])	IC50 (HCT-116; read-out: IC50 (μM) HCT-116, human colon cancer cell line, MTT, mean ± SD, n = 3)	SMILES	inhibition at 1 µM (cSrc; read-out: % inhibition cSrc)	IC50 (MCF-7; Homo sapiens, MCF7, read-out: IC50 (μM) MCF-7)	IC50 (HCT-116; Homo sapiens, HCT-116, read-out: IC50 (μM) HCT-116)
14.9 ± 1.38 µM	0%	17.1 ± 1.4 µM	> 50 µM	97 to 98 °C	3%	1%	34 ± 2.25 µM	490 ± 44 nM	>102.0	3%	29.1 ± 2.45 µM	–	–	COc1ccc2c(c1)c(CC(=O)SC1CCCCC1)c(C)n2C(=O)c1ccc(Cl)cc1 [7b, S-cyclohexyl-2–(1-(4-chlorobenzoyl)-5-methoxy-2-methyl-1H-indol-3-yl)ethanethioate]	–	–	–
63.6 ± 3.91 µM	–	46.5 ± 2.84 µM	–	55 to 56 °C	–	–	76.5 ± 4.22 µM	–	–	–	68.8 ± 3.79 µM	–	–	CC(=O)Oc1ccccc1C(=O)SC1CCCCC1 [4b, 2-[(Cyclohexylthio)carbonyl]phenyl acetate]	–	–	–
36.8 ± 2.7 µM	–	42.6 ± 2.67 µM	–	115 to 117 °C	–	–	51.2 ± 3.71 µM	–	–	–	63.8 ± 3.58 µM	–	–	COc1ccc2cc(C(C)C(=O)Sc3ccccc3)ccc2c1 [5a, S-phenyl-(S)-2–(6-methoxynaphthalen-2-yl)propanethioate]	–	–	–
19.7 ± 1.57 µM	–	28.9 ± 1.58 µM	–	105 to 106 °C	–	–	39.5 ± 2.61 µM	–	–	–	35.6 ± 2.62 µM	–	–	COc1ccc2cc(C(C)C(=O)SC3CCCCC3)ccc2c1 [5b, S-cyclohexyl-(S)-2–(6-methoxynaphthalen-2-yl)propanethioate]	–	–	–
7.35 ± 0.34 µM	0%	8.62 ± 0.72 µM	> 50 µM	–	10%	6%	9.73 ± 0.85 µM	200 ± 16 nM	>250.0	4%	15.4 ± 1.37 µM	–	–	CC1=C(CC(=O)Sc2ccccc2)c2cc(F)ccc2C1=Cc1ccc([S+](C)[O-])cc1 (stereo not drawn) [8a, S-phenyl-2–(5-fluoro-2-methyl-1–(4-(methylsulfinyl)benzylidene)-1H-inden-3-yl)ethanethioate]	–	–	–
22.3 ± 1.96 µM	–	34.1 ± 2.07 µM	> 50 µM	121 to 122 °C	–	–	46.7 ± 2.93 µM	600 ± 55 nM	>83.3	–	43.8 ± 2.96 µM	–	–	CC1=C(CC(=O)SC2CCCCC2)c2cc(F)ccc2C1=Cc1ccc([S+](C)[O-])cc1 (stereo not drawn) [8b, S-cyclohexyl-2–(5-fluoro-2-methyl-1–(4-(methylsulfinyl)benzylidene)-1H-inden-3-yl)ethanethioate]	–	–	–
7.86 ± 0.39 µM	0%	9.65 ± 0.96 µM	> 50 µM	133 to 135 °C	4%	0%	14.6 ± 1.24 µM	220 ± 19 nM	>227.3	1%	18.1 ± 1.73 µM	–	–	COc1ccc2c(c1)c(CC(=O)Sc1ccccc1)c(C)n2C(=O)c1ccc(Cl)cc1 [7a, S-phenyl-2–(1-(4-chlorobenzoyl)-5-methoxy-2-methyl-1H-indol-3-yl)ethanethioate]	–	–	–
71.1 ± 4.11 µM	–	73.7 ± 3.92 µM	–	72 to 73 °C	–	–	85.4 ± 4.57 µM	–	–	–	80.2 ± 4.5 µM	–	–	CC(=O)Oc1ccccc1C(=O)Sc1ccccc1 [4a, 2-[(Phenylthio)carbonyl]phenyl acetate]	–	–	–
26.8 ± 2.08 µM	1%	6.11 ± 0.31 µM	> 50 µM	101 to 102 °C	5%	6%	46.9 ± 3.23 µM	250 ± 17 nM	>200.0	5%	10.2 ± 0.92 µM	–	–	O=C(Cc1ccccc1Nc1c(Cl)cccc1Cl)Sc1ccccc1 [6a, S-phenyl-2–(2-((2,6-dichlorophenyl)amino)phenyl)ethanethioate]	–	–	–
> 100 µM	–	–	–	88 to 90 °C	–	–	91.2 ± 4.96 µM	–	–	–	> 100 µM	95.3 ± 4.96 µM	–	O=C(Cc1ccccc1Nc1c(Cl)cccc1Cl)SC1CCCCC1 [6b, S-cyclohexyl-2–(2-((2,6-dichlorophenyl)amino)phenyl)ethanethioate]	–	–	–

Reference: article PMC6009944, “Synthesis, antitumour activities and molecular docking of thiocarboxylic acid ester-based NSAID scaffolds: COX-2 inhibition and mechanistic studies” (Journal of Enzyme Inhibition and Medicinal Chemistry, 2018)
